Results taken from US10550091B2, “1,4,5-substituted 1,2,3-triazole analogues as antagonists of the pregnane X receptor” (ST. JUDE CHILDREN'S RESEARCH HOSPITAL, priority 2016, dated 2020).

Assays:
HepG2 cells = assay: HepG2 cytotoxicity assay (CellTiter Glo); type: cell-based; conditions: Homo sapiens; HepG2, 72 h; NA = not active; read-out: IC50 (cyto)
hPXR = hPXR (Homo sapiens (Human), UniProt O75469)
hPXR, sequence (O75469 whole entry): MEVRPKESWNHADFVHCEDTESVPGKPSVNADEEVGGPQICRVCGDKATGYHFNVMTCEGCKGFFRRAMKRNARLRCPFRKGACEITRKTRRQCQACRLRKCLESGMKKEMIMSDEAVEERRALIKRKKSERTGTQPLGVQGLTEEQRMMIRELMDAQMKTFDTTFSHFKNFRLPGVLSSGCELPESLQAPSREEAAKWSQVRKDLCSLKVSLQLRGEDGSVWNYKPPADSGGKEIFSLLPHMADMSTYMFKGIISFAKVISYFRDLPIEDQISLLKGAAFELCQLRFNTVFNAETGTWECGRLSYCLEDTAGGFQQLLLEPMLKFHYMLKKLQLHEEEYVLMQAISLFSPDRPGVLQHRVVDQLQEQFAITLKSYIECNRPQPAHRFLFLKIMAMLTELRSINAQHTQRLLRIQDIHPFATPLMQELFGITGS

| EC50 (hPXR) [nM] | SMILES | IC50 (HepG2 cells) [nM] |
| --- | --- | --- |
| 6100 | COc1ccc(C)cc1-n1nnc(S(=O)(=O)c2ccc(C(C)(C)C)cc2)c1CCl [LC-65, 4-((4-(tert-butyl)phenyl)sulfonyl)-5-(chloromethyl)-1-(2-methoxy-5-methylphenyl)-1H-1,2,3-triazole] | 7000 |
|  | COc1ccc(C)cc1-c1ncc(S(=O)(=O)c2ccc(C(C)(C)C)cc2)n1C [LC-71, 5-((4-(tert-butyl)phenyl)sulfonyl)-2-(2-methoxy-5-methylphenyl)-1-methyl-1H-imidazole] | 34900 |
| 1200 | COc1ccc(C)cc1-n1nnc(Nc2ccc(C(C)(C)C)cc2)c1C [LC-44, N-(4-(tert-butyl)phenyl)-1-(2-methoxy-5-methylphenyl)-5-methyl-1H-1,2,3-triazol-4-amine] | 22500 |
| 760 | CCc1cc(OC)c(-n2nnc(S(=O)(=O)c3ccc(C(C)(C)C)cc3)c2C)cc1Cl [LC-31, 4-((4-(tert-butyl)phenyl)sulfonyl)-1-(5-chloro-4-ethyl-2-methoxyphenyl)-5-methyl-1H-1,2,3-triazole] | 14800 |
| 1100 | COc1ccc(Cl)cc1-n1nnc(Nc2ccc(C(C)(C)C)cc2)c1C [LC-45, N-(4-(tert-butyl)phenyl)-1-(5-chloro-2-methoxyphenyl)-5-methyl-1H-1,2,3-triazol-4-amine] | 30700 |
| 700 | COc1ccc(Cl)cc1-n1nnc(N(C)c2ccc(C(C)(C)C)cc2)c1C [LC-48, N-(4-(tert-butyl)phenyl)-1-(5-chloro-2-methoxyphenyl)-N,5-dimethyl-1H-1,2,3-triazol-4-amine] | 33800 |
| 1600 | COC(=O)c1cc(OC)c(-n2nnc(S(=O)(=O)c3ccc(C(C)(C)C)cc3)c2C)cc1Cl [LC-34, methyl 4-(4-((4-(tert-butyl)phenyl)sulfonyl)-5-methyl-1H-1,2,3-triazol-1-yl)-2-chloro-5-methoxybenzoate] |  |
| 2800 | COc1ccc(OC)c(-c2nc(C)c(S(=O)(=O)c3ccc(C(C)(C)C)cc3)n2C)c1 [LC-76, 5-((4-(tert-butyl)phenyl)sulfonyl)-2-(2,5-dimethoxyphenyl)-1,4-dimethyl-1H-imidazole] |  |
| 530 | COc1ccc(Cl)cc1-n1nnc(S(=O)(=O)c2ccc(C(C)(C)C)cc2)c1C(C)=O [LC-54, 1-(4-((4-(tert-butyl)phenyl)sulfonyl)-1-(5-chloro-2-methoxyphenyl)-1H-1,2,3-triazol-5-yl)ethan-1-one] |  |
| 1200 | COc1ccc(Cl)cc1-c1ncc(C(=O)c2ccc(C(C)(C)C)cc2)n1C [LC-81, (4-(tert-butyl)phenyl)(2-(5-chloro-2-methoxyphenyl)-1-methyl-1H-imidazol-5-yl)methanone] |  |
| 1700 | COC(=O)c1cc(OC)c(-n2nnc(S(=O)(=O)c3ccc(C(C)(C)C)cc3)c2C)cc1C [LC-25, methyl 4-(4-((4-(tert-butyl)phenyl)sulfonyl)-5-methyl-1H-1,2,3-triazol-1-yl)-5-methoxy-2-methylbenzoate] |  |
| 730 | COc1cc(C(C)C)c(C)cc1-n1nnc(S(=O)(=O)c2ccc(C(C)(C)C)cc2)c1C [LC-23, 4-((4-(tert-butyl)phenyl)sulfonyl)-1-(4-isopropyl-2-methoxy-5-methylphenyl)-5-methyl-1H-1,2,3-triazole] |  |
| 160 | COc1cc(C(C)=O)c(C)cc1-n1nnc(S(=O)(=O)c2ccc(C(C)(C)C)cc2)c1C [LC-26, 1-(4-(4-((4-(tert-butyl)phenyl)sulfonyl)-5-methyl-1H-1,2,3-triazol-1-yl)-5-methoxy-2-methylphenyl)ethan-1-one] | 3400 |
| 530 | COc1cc(Br)c(Cl)cc1-n1nnc(S(=O)(=O)c2ccc(C(C)(C)C)cc2)c1C [LC-29, 1-(4-bromo-5-chloro-2-methoxyphenyl)-4-((4-(tert-butyl)phenyl)sulfonyl)-5-methyl-1H-1,2,3-triazole] |  |
| 790 | COc1ccc(C)cc1-c1nc(C)c(S(=O)(=O)c2ccc(C(C)(C)C)cc2)n1C [LC-77, 5-((4-(tert-butyl)phenyl)sulfonyl)-2-(2-methoxy-5-methylphenyl)-1,4-dimethyl-1H-imidazole] |  |
| 610 | COc1ccc(Cl)cc1-c1ncc(S(=O)(=O)c2ccc(C(C)(C)C)cc2)[nH]1 [LC-69, 5-((4-(tert-butyl)phenyl)sulfonyl)-2-(5-chloro-2-methoxyphenyl)-1H-imidazole] |  |
|  | COc1ccc(Cl)cc1-c1ncc(S(=O)(=O)c2ccc(C(C)(C)C)cc2)n1C [LC-72, 5-((4-(tert-butyl)phenyl)sulfonyl)-2-(5-chloro-2-methoxyphenyl)-1-methyl-1H-imidazole] | 30900 |
| 1000 | COc1ccc(Cl)cc1-n1nnc(S(=O)(=O)c2ccc(C(C)(C)C)cc2)c1N [LC-39, 4-((4-(tert-butyl)phenyl)sulfonyl)-1-(5-chloro-2-methoxyphenyl)-1H-1,2,3-triazol-5-amine] | 16100 |
| 920 | COc1ccc(Cl)cc1-c1nc(C)c(S(=O)(=O)c2ccc(C(C)(C)C)cc2)[nH]1 [LC-75, 5-((4-(tert-butyl)phenyl)sulfonyl)-2-(5-chloro-2-methoxyphenyl)-4-methyl-1H-imidazole] |  |
| 1300 | COc1cc(C(C)=O)c(Cl)cc1-n1nnc(S(=O)(=O)c2ccc(C(C)(C)C)cc2)c1C [LC-35, 1-(4-(4-((4-(tert-butyl)phenyl)sulfonyl)-5-methyl-1H-1,2,3-triazol-1-yl)-2-chloro-5-methoxyphenyl)ethan-1-one] | 7200 |
| 980 | COc1ccc(OC)c(-n2nnc(N(C)c3ccc(C(C)(C)C)cc3)c2C)c1 [LC-46, N-(4-(tert-butyl)phenyl)-1-(2,5-dimethoxyphenyl)-N,5-dimethyl-1H-1,2,3-triazol-4-amine] |  |
| 1500 | COc1ccc(OC)c(-n2nnc(Nc3ccc(C(C)(C)C)cc3)c2C)c1 [LC-43, N-(4-(tert-butyl)phenyl)-1-(2,5-dimethoxyphenyl)-5-methyl-1H-1,2,3-triazol-4-amine] |  |
| 750 | CCc1cc(OC)c(-n2nnc(S(=O)(=O)c3ccc(C(C)(C)C)cc3)c2C)cc1C [LC-22, 4-((4-(tert-butyl)phenyl)sulfonyl)-1-(4-ethyl-2-methoxy-5-methylphenyl)-5-methyl-1H-1,2,3-triazole] |  |
| 1700 | COc1ccc(OC)c(-c2ncc(S(=O)(=O)c3ccc(C(C)(C)C)cc3)[nH]2)c1 [LC-67, 5-((4-(tert-butyl)phenyl)sulfonyl)-2-(2,5-dimethoxyphenyl)-1H-imidazole] |  |

| SMILES | EC50 (hPXR) [nM] | IC50 (HepG2 cells) [nM] |
| --- | --- | --- |
| COc1ccc(C)cc1-c1ncc(C(=O)c2ccc(C(C)(C)C)cc2)n1C [LC-80, (4-(tert-butyl)phenyl)(2-(2-methoxy-5-methylphenyl)-1-methyl-1 h-imidazol-5-yl)methanone] | 2400 |  |
| COc1ccc(C)cc1-n1nnc(S(=O)(=O)c2ccc(C(C)(C)C)cc2)c1C#N [LC-50, 4-((4-(tert-butyl)phenyl)sulfonyl)-1-(2-methoxy-5-methylphenyl)-1H-1,2,3-triazole-5-carbonitrile] | 180 |  |
| COc1cc(-n2nnc(S(=O)(=O)c3ccc(C(C)(C)C)cc3)c2C)c(OC)cc1Br [LC-10, 1-(4-bromo-2,5-dimethoxyphenyl)-4-((4-(tert-butyl)phenyl)sulfonyl)-5-methyl-1H-1,2,3-triazole] | 750 |  |
| COc1cc(OC)c(-n2nnc(S(=O)(=O)c3ccc(C(C)(C)C)cc3)c2C)cc1OC [LC-14, 4-((4-(tert-butyl)phenyl)sulfonyl)-5-methyl-1-(2,4,5-trimethoxyphenyl)-1H-1,2,3-triazole] | 7200 |  |
